≈ marks a conversion by molar mass, not a printed value. Read-outs that look alike come from different tables or passages of the source. Numbered stars: 1 amine (or outer) side, 2 acyl side, 3 side chain; on linkers, the order of the positions; unused ones are H or OH. Bridge positions count the residues as written; N and C are the ends. Square brackets hold non-standard residues; d marks the D form. Peptide text beside a SMILES is read from it. * marks the point of attachment. Piperazine(2S-CO,4-Me) = CN1CCN[C@H](C(=O)O)C1; Phe(3-Cl) = N[C@@H](Cc1cccc(Cl)c1)C(=O)O; Phe(3-Me) = Cc1cccc(C[C@H](N)C(=O)O)c1; NH(4-Cl-2-F-phenyl) = Fc1cc(Cl)ccc1N*; Pro(4R-Me) = C[C@H]1CN[C@H](C(=O)O)C1; Hyp = O=C(O)[C@@H]1C[C@@H](O)CN1; NH(4-Me-phenyl) = Cc1ccc(N*)cc1; aThr = C[C@H](O)[C@H](N)C(=O)O; Pip = O=C(O)[C@@H]1CCCCN1; 4Abz = Nc1ccc(C(=O)O)cc1; CO = O=C([*:1])[*:2]
Experiments:
[1] = Plasma protein binding, rapid equilibrium dialysis; assay type: in vitro ADME, mouse
Experimental: (§1) This assay determines plasma protein binding of a drug/compound and free drug concentration in plasma using rapid equilibrium dialysis, which allow the aqueous component of plasma containing the free drug/compound through a dialysis membrane (MWCO˜8,000).
(§2) Solutions were prepared at 10 mM in DMSO. Dulbecco's phosphate buffered saline (DPBS; pH 7.4) was obtained from Invitrogen (Carlsbad, Calif.). Single-Use RED (rapid equilibrium dialysis) device was obtained from Thermo scientific (Rockford, Ill.). Human plasma was obtained from Innovative Research INC (Novi, Michigan, Ill).
(§3) Sample preparation for plasma protein binding was modified from Waters' method. (Waters et al. (2008) J. Pharm. Sci. 97(10): 4586-95). The Teflon base plate with the RED inserts (MWCO 8 K) were allowed to use without any pre-condition the membrane inserts. Human plasma was thawed and centrifuged at 1000 rpm for 2 min to remove any particulates. Each compound was prepared at 10 μM in human plasma. This was done by adding 1 μL, of drug solution (10 mM in DMSO) to 1000 μL, of human plasma (0.1% DMSO). Spiked plasma solutions (300 μL) were placed into the sample chamber (indicated by the red ring) and 500 μL, of DPBS into the adjacent chamber. The plate was sealed and incubated at 37° C. on an orbital shaker (100 rpm) for 4 hours. After incubation, the seal was removed from the RED plate and the volume of the insert confirmed—little to no volume change occurred. Aliquots (50 μL) were removed from each side of the insert and dispensed into a 96-well deep plate. An equal volume of blank plasma or DPBS was added to the required wells to create analytically identical sample matrices (matrix matching). To each sample 200 μL, of ACN containing 4 μg/mL warfarin IS was added. All of the plates were sealed and mixed well at 600 rpm for 10 min and were centrifuged at 4000 rpm for 20 min. The supernatants (120 μL) were transferred to analytical plates for analysis by LCMS. Conditions for Waters ACQUITY-UPLC-MS-UV system were described separately. The test compound concentrations were quantified in both buffer and plasma chambers via peak areas relative to the internal standard. The percentage of the test compound bound to plasma was calculated on following equations: % Free=(Concentration buffer chamber/concentration plasma chamber)×100% and % Bound=100%-% Free.

[2] = tested on: MRSA NRS70; experiment: Minimal inhibitory concentration, microbroth dilution; assay type: cell-based; conditions: Staphylococcus aureus
Outline: (§4)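 Growth inhibition was scored visually after overnight aerobic culture at 37 °C in CLSI-style microdilution plates. Inocula contained about 10^5 cfu/mL, and compound concentrations descended in twofold steps from 200 μM.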

[3] = tested on: E. faecails; experiment: as above; assay type: cell-based; conditions: Enterococcus faecalis
Outline: as §4

[4] = tested on: S. aureus USA 300; experiment: as above; assay type: cell-based; conditions: Staphylococcus aureus
Outline: as §4

[5] = tested on: S. aureus ATCC 29213; experiment: as above; assay type: cell-based; conditions: Staphylococcus aureus
Outline: as §4

[6] = Plasma protein binding, rapid equilibrium dialysis; assay type: in vitro ADME, human; conditions: 10 μM
Experimental: as §1, §2, §3

[7] = tested on: S. aureus ΔClpP; experiment: Minimal inhibitory concentration, microbroth dilution; assay type: cell-based, Staphylococcus aureus; conditions: MIC; ClpP inactivated
Outline: as §4

[8] = plasma binding, % Bound, mouse plasma
[9] = read-out: Minimal Inhibitory Concentrations (μM) MRSA NRS70, MIC
[10] = read-out: Minimal Inhibitory Concentrations (μM) E. faecails, MIC
[11] = USA300, read-out: Minimal Inhibitory Concentrations (μM) S. aureus USA 300, MIC
[12] = ATCC29213, read-out: Minimal Inhibitory Concentrations (μM) S. aureus ATCC 29213, MIC
[13] = plasma binding, % Bound, human plasma
[14] = MIC, read-out: Minimal Inhibitory Concentrations (μM) MRSA NRS70
[15] = MIC, read-out: Minimal Inhibitory Concentrations (μM) E. faecails
[16] = USA300, MIC, read-out: Minimal Inhibitory Concentrations (μM) S. aureus USA 300
[17] = ATCC29213, MIC, read-out: Minimal Inhibitory Concentrations (μM) S. aureus ATCC 29213

For `Cc1ccc(NC(=O)N[C@@H](Cc2cccc(C)c2)C(=O)N[C@@H]2C(=O)N3C[C@H](O)C[C@H]3C(=O)N3CCCC[C@H]3C(=O)N[C@@H](C)C(=O)N3C[C@H](C)C[C@H]3C(=O)O[C@H]2C)cc1` [Compound 26, (S)—N-((2R,6S,8AS,14AS,16R,20S,21S,23AS)-16-HYDROXY-2,6,21-TRIMETHYL-5,8,14,19,23-PENTAOXOOCTADECAHYDRO-1H,5H,14H,19H-PYRIDO[2,1-I]DIPYRROLO[2,1-C:2′,1′-L][1]OXA[4,7,10,13]TETRAAZACYCLOHEXADECIN-20-YL)-3-(M-TOLYL)-2-(3-(P-TOLYL)UREIDO)PROPANAMIDE] ({NH(4-Me-phenyl)-CO}-[Phe(3-Me)][aThr][Hyp][Pip]A[Pro(4R-Me)]; ester 2-C), the Mouse [1, 8] was 99.1 ± 0.15%, the MIC [2, 9] was 0.313 µM (≈ 0.251 µg/mL) and the MIC [3, 10] was 5 µM (≈ 4.01 µg/mL). It also gave an MIC [4, 11] of 2.5 µM (≈ 2 µg/mL), an MIC [5, 12] of 0.313 µM (≈ 0.251 µg/mL) and a Human [6, 13] of 98.8 ± 0.1%. The “Minimal Inhibitory Concentrations (μM) S. aureus ΔClpP” value [7] was >20 µM.
`C[C@@H]1C[C@H]2C(=O)O[C@@H](C)[C@H](NC(=O)[C@H](Cc3cccc(Cl)c3)NC(=O)Nc3ccc(Cl)cc3F)C(=O)N3CCC[C@H]3C(=O)N3CCN(C)C[C@H]3C(=O)N[C@@H](C)C(=O)N2C1` [Compound 33] ({NH(4-Cl-2-F-phenyl)-CO}-[Phe(3-Cl)][aThr]P[Piperazine(2S-CO,4-Me)]A[Pro(4R-Me)]; ester 2-C) showed a Mouse ([1]; mouse, 4 h, 10 μM, pH 7.4) of 99.5 ± 9.5%, an MIC [2, 14] of 0.039 µM (≈ 0.0335 µg/mL) and an MIC [3, 15] of 0.078 µM (≈ 0.0671 µg/mL). It also gave an MIC [4, 16] of 0.078 µM (≈ 0.0671 µg/mL), an MIC [5, 17] of 0.078 µM (≈ 0.0671 µg/mL) and a Human ([6]; human, 4 h, pH 7.4) of 99.1 ± 9.1%. For the same compound, the “Minimal Inhibitory Concentrations (μM) S. aureus ΔClpP” value [7] was >20 µM.
Compound `Cc1cccc(C[C@H](NC(=O)Nc2ccc3c(c2)OCCO3)C(=O)N[C@H]2COC(=O)[C@@H]3C[C@@H](C)CN3C(=O)[C@H](C)NC(=O)[C@@H]3CCCCN3C(=O)[C@@H]3CCCN3C2=O)c1` [Compound 22, (S)-2-(3-(2,3-DIHYDROBENZO[B][1,4]DIOXIN-6-YL)UREIDO)-N-((2R,6S,8AS,14AS,20S,23AS)-2,6-DIMETHYL-5,8,14,19,23-PENTAOXOOCTADECAHYDRO-1H,5H,14H,19H-PYRIDO[2,1-I]DIPYRROLO[2,1-C:2′,1′-L][1]OXA[4,7,10,13]TETRAAZACYCLOHEXADECIN-20-YL)-3-(M-TOLYL)PROPANAMIDE] has a Mouse ([1]; mouse, 4 h, 10 μM, pH 7.4) of 98.4 ± 0.1%, an MIC [2, 14] of 1.25 µM (≈ 1.02 µg/mL) and an MIC [3, 15] of 1.25 µM (≈ 1.02 µg/mL). For the same compound, the MIC [4, 16] was 5 µM (≈ 4.08 µg/mL), the MIC [5, 17] was 5 µM (≈ 4.08 µg/mL) and the Human ([6]; human, 4 h, pH 7.4) was 97.1 ± 0.2%. The “Minimal Inhibitory Concentrations (μM) S. aureus ΔClpP” value [7] was >20 µM.
With `Cc1ccc(NC(=O)N[C@@H](Cc2cccc(C)c2)C(=O)N[C@H]2COC(=O)[C@@H]3CCCN3C(=O)[C@H](C)NC(=O)[C@@H]3CCCCN3C(=O)[C@@H]3C[C@@H](O)CN3C2=O)cc1` [Compound 49, (S)—N-((6S,8AS,14AS,16R,20S,23AS)-16-HYDROXY-6-METHYL-5,8,14,19,23-PENTAOXOOCTADECAHYDRO-1H,5H,14H,19H-PYRIDO[2,1-I]DIPYRROLO[2,1-C:2′,1′-L][1]OXA[4,7,10,13]TETRAAZACYCLOHEXADECIN-20-YL)-3-(M-TOLYL)-2-(3-(P-TOLYL)UREIDO)PROPANAMIDE] the Mouse [1, 8] was 99.4 ± 9.4%, the Human [6, 13] was 98.7 ± 8.7% and the “Minimal Inhibitory Concentrations (μM) S. aureus ΔClpP” value [7] was >20 µM.
Compound `CCOC(=O)c1ccc(NC(=O)N[C@@H](Cc2cccc(C)c2)C(=O)N[C@@H]2C(=O)N3C[C@H](O)C[C@H]3C(=O)N3CCCC[C@H]3C(=O)N[C@@H](C)C(=O)N3C[C@H](C)C[C@H]3C(=O)O[C@H]2C)cc1` [Compound 36, ETHYL 4-(3-((S)-1-(((2R,6S,8AS,14AS,16R,20S,21S,23AS)-16-HYDROXY-2,6,21-TRIMETHYL-5,8,14,19,23-PENTAOXOOCTADECAHYDRO-1H,5H,14H,19H-PYRIDO[2,1-I]DIPYRROLO[2,1-C:2′,1′-L][1]OXA[4,7,10,13]TETRAAZACYCLOHEXADECIN-20-YL)AMINO)-1-OXO-3-(M-TOLYL)PROPAN-2-YL)UREIDO)BENZOATE] ({OEt-4Abz-CO}-[Phe(3-Me)][aThr][Hyp][Pip]A[Pro(4R-Me)]; ester 2-C) has an MIC [2, 9] of 2.5 µM (≈ 2.15 µg/mL), an MIC [3, 10] of 1.25 µM (≈ 1.07 µg/mL) and an MIC [4, 11] of 2.5 µM (≈ 2.15 µg/mL). The MIC [5, 12] was 1.25 µM (≈ 1.07 µg/mL), the Human [6, 13] was 98.3 ± 8.3% and the “Minimal Inhibitory Concentrations (μM) S. aureus ΔClpP” value [7] was >20 µM.
